Source: PMC8079283 (The Journal of Biological Chemistry, 2021)

Target: T1, NUDT15 (Homo sapiens, UniProt Q9NV35)
T1 sequence (Q9NV35 1-164): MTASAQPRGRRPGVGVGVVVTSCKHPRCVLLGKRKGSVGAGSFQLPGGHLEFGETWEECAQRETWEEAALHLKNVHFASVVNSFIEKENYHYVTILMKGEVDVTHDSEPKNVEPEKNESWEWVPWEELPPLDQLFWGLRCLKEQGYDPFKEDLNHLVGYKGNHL
Assay: X-ray crystal structure
Format: biochemical

`C[C@@H]1CN(C(=O)c2ccc3c(ccn3C)c2)CCN1S(=O)(=O)c1ccc2[nH]c(=O)oc2c1` [compound 6, (R)-6-((2-methyl-4-(1-methyl-1H-indole-5-carbonyl)piperazin-1-yl)sulfonyl)benzo[d]oxazol-2(3H)-one] showed a Ki of 10.2 ± 0.9 nM.
